In ChEMBL document CHEMBL4118172, “Design and synthesis of 2,6-disubstituted-8-amino imidazo[1,2a]pyridines, a promising privileged structure” (Bioorg Med Chem, 2018) one finds CC50 and Ki data, which are given here for 19 compounds.

pKi: −log10 of the molar value. A value given as a limit tells only on which side of the number the result lay.

The nature of data set [1]: Cytotoxicity against human SH-SY5Y cells after 24 to 72 hrs by MTT assay. The format is cell-based. On the technique in general: Tetrazolium dyes change colour on reduction, which living cells bring about.
The target of the next data set is Adenosine receptor A2a (Homo sapiens, UniProt P29274). In words: Displacement of [3H]-ZM-241385 from human adenosine A2A receptor expressed in HEK293 cell membranes after 1 hr by scintillation counting analysis.
Chain of Adenosine receptor A2a (P29274 whole entry): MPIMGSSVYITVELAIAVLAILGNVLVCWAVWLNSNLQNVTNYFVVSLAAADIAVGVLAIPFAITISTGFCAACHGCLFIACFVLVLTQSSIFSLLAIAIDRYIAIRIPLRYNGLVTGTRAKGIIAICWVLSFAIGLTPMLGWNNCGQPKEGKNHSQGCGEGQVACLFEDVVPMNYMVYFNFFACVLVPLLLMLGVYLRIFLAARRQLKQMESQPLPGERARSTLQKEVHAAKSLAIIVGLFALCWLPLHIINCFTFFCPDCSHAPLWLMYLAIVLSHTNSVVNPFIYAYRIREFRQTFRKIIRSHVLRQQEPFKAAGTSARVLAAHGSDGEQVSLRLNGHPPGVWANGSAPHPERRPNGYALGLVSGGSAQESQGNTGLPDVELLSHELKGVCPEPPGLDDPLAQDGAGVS

By CC50 is commonly meant the concentration giving 50% cytotoxicity. Low readings indicate harm at low concentration, high ones better tolerance by the cells. As a reminder, the pKi is the negative decadic logarithm of the Ki, by convention in mol/L. Higher therefore signals a low Ki. For `COc1ccc(-c2cn3cc(C(=O)NCCCN4CCCCC4)cc(N)c3n2)cc1OC`, half-maximal cytotoxicity in data set [1] (CC50) was put at 49.6 µM. This compound gave a pKi on Adenosine receptor A2a below 5.00.

For `c1coc(-c2cn3ccccc3n2)c1`, the CC50 in data set [1] was above 100 µM. On Adenosine receptor A2a, this compound had a pKi below 5.00.

Consider `COc1ccc(-c2cn3cc(CCc4ccccc4)cc(N)c3n2)cc1OC`, for which, in data set [1], the CC50 was found to be 50.4 µM. The pKi on Adenosine receptor A2a was below 5.00.

`c1ccc(-c2ccc3nc(-c4ccco4)cn3c2)cc1` gave a CC50 in data set [1] of 0.42 µM. At Adenosine receptor A2a, this compound gave a pKi below 5.00.

As to `c1coc(-c2ccc3nc(-c4ccco4)cn3c2)c1`, the 50% cytotoxic concentration (CC50) in data set [1] worked out at 3 µM. This compound gave a pKi on Adenosine receptor A2a of 5.79.

`COc1ccc(-c2cn3cc(C#Cc4ccccc4)cc(N)c3n2)cc1OC`: it took 66.7 µM to reach half-maximal cytotoxicity in data set [1] (CC50). For the same compound, the pKi at Adenosine receptor A2a was below 5.00.

The compound `Nc1cc(-c2ccccc2)cn2cc(-c3ccco3)nc12` returned a CC50 in data set [1] of 0.5 µM. This compound also showed a negative logarithm of the Ki (pKi) on Adenosine receptor A2a below 5.00.

In the case of `COc1ccc(-c2cn3cc(C(=O)NCCCN4CCN(C)CC4)cc(N)c3n2)cc1OC`, the CC50 in data set [1] is above 100 µM. The compound further had a pKi on Adenosine receptor A2a below 5.00.

The compound `COc1ccc(-c2cn3cc(C(=O)NCCCN4CCNCC4)cc(N)c3n2)cc1OC` gave a CC50 in data set [1] above 100 µM. On Adenosine receptor A2a, this compound gave a pKi below 5.00.

Compound `COc1ccc(-c2cn3cc(-c4ccco4)cc(N)c3n2)cc1OC` gave a CC50 in data set [1] of 36.4 µM. At Adenosine receptor A2a, this compound showed a pKi of 6.93.

In the case of `Nc1cc(-c2ccco2)cn2cc(-c3ccccc3)nc12`, in data set [1], the CC50 amounted to 26 µM. The same compound showed a pKi at Adenosine receptor A2a of 6.38.

As for `c1ccc(-c2cn3cc(-c4ccco4)ccc3n2)cc1`, the CC50 in data set [1] is above 100 µM. The compound also had a pKi at Adenosine receptor A2a below 5.00.

In data set [1], `COCCOc1ccc(N2CCN(CCNC(=O)c3cc(N)c4nc(-c5ccc(OC)c(OC)c5)cn4c3)CC2)cc1` came in with a CC50 of 31.8 µM. At Adenosine receptor A2a, this compound showed a pKi below 5.00.

As to `COc1ccc(-c2cn3cc(C(=O)NCCCN4CCOCC4)cc(N)c3n2)cc1OC`, the CC50 in data set [1] is above 100 µM. Besides, the pKi at Adenosine receptor A2a is below 5.00.

`Nc1cccn2cc(-c3ccco3)nc12`: in data set [1], the CC50 was above 100 µM. The compound further had a pKi on Adenosine receptor A2a below 5.00.

Consider `COCCOc1ccc(N2CCN(C(=O)c3cc(N)c4nc(-c5ccc(OC)c(OC)c5)cn4c3)CC2)cc1`, for which, in data set [1], the CC50 was above 100 µM. Besides, the pKi on Adenosine receptor A2a was below 5.00.

Regarding `COc1ccc(-c2cn3cc(C(=O)NCCc4ccc(O)cc4)cc(N)c3n2)cc1OC`, the CC50 in data set [1] was determined as 26.9 µM. Also, the pKi at Adenosine receptor A2a was below 5.00.

Regarding `Nc1cc(-c2ccco2)cn2cc(-c3ccco3)nc12`, in data set [1], half-maximal cytotoxicity (CC50) was put at 2.27 µM. Besides, on Adenosine receptor A2a, the pKi was below 5.00.

`COc1ccc(-c2cn3cc(-c4ccco4)ccc3n2)cc1OC` came in with a CC50 in data set [1] of 30 µM. The compound also gave a pKi on Adenosine receptor A2a of 6.62.
